From patent US20250228835A1, “PYRIDINYLOXYPYRIDINES AND RELATED COMPOUNDS AND THEIR USE IN TREATING MEDICAL CONDITIONS” (Rectify Pharmaceuticals, Inc., priority 2024, published 2025)

What was measured:
ABCD2 WT = target: T1, ABCD2 WT (Homo sapiens, UniProt Q9UBJ2); test: D2 correction dose-response assay: ABCD2 WT HiBit protein expression; type: cell-based; conditions: HEK-293/ABCD2 WT cells, 24 hours treatment, HiBit luminescence; class combines EC50 and Mean MaxAct (fold); read-out: ABCD2 WT EC50, Emax
T1 construct: expressed in transfected cells
T1 sequence (Q9UBJ2 1-740): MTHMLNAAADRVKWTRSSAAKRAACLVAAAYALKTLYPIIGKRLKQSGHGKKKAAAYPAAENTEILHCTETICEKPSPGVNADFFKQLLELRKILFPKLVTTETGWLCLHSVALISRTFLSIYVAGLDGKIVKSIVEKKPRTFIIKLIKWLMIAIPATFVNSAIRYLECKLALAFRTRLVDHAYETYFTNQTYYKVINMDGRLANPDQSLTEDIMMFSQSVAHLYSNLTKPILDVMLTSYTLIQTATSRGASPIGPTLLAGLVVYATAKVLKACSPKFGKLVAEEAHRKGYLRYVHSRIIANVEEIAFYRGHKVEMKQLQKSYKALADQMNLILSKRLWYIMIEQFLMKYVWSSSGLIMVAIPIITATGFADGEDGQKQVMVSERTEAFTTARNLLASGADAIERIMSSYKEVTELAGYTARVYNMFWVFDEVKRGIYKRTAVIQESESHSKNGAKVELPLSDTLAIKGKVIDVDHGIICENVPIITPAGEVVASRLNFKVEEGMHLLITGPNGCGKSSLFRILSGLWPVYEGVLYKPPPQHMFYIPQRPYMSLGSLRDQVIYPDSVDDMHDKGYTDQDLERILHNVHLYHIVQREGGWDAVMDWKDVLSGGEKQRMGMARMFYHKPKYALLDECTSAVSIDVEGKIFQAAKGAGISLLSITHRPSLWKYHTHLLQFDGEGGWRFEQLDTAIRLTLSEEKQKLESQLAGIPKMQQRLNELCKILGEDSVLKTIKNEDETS
Method: Exemplary compounds were evaluated in a D2 correction dose-response assay.
To assess activity against ABCD2, the compounds were screened in an assay measuring protein expression, using cells transfected with cDNA encoding HiBit-tagged ABCD2 wild-type. Here we describe an assay for measuring the expression of the wild type of human ABCD2 (henceforth referred to as ABCD2 WT) and the use of this assay to measure the efficacy of compounds to increase the expression of ABCD2 WT. The assay was designed to characterize the efficacy and potency of compounds to increase the expression of ABCD2 WT by calculating an Emax and EC50 value. HEK-293 cells stably expressing ABCD2 WT (HEK-293/ABCD2 WT) were used for this assay and were maintained at 37° C. (5% CO2, humidified) in Dulbecco's Modified Eagle Medium (DMEM, Gibco product #12100) supplemented with 10% fetal bovine serum (Biosera product #FB-1058/500), 1% PenStrep (HDB product #15140-122), and 0.5 mg/mL puromycin (Gibco product #A11138-03). For the assay, the HEK-293/ABCD2 WT cells were seeded in white/opaque 384-well plates (Corning product #3570) at 10,000 cells/well in 20 μl growth medium and allowed to settle for 4 hours at 37° C. (5% CO2, humidified). Compound serial dilutions are prepared in DMSO as three hundred times (333×) the final concentration and using a dilution factor of 3 using Bravo (Agilent). After the four-hour incubation period, 60 nL of DMSO solutions are transferred to the assay plate.
Dose response curves include eleven doses with the top final concentration at 30 μM in 0.3% DMSO. Liquid handling is performed with ECHO 550 Acoustic Liquid Handler (Labcyte). After addition of compound treatment, cells are incubated for 24 hours at 37° C. (5% CO2, humidified). After the 24-hour treatment, plates are allowed to equilibrate to room temperature for 10 minutes. Using Dragonfly Automated Liquid Handler (TTP LabTech), 20 μl of HiBit lytic assay reagent (Promega, product #N3040), which is prepared according to manufacturer's instructions, is added to each well. The plates are rotated at room temperature for 2 minutes and incubated for 1 hour at 25° C. before luminescent signal is acquired using an EnVision Multimode Plate Reader (PerkinElmer).

ABCC6 WT = target: T2, ABCC6 WT (Homo sapiens, UniProt O95255); test: ABCC6 WT assay: HiBit protein expression; type: cell-based; conditions: HEK-293 cells transiently expressing HiBit-tagged ABCC6 WT; 24 h treatment; top concentration 20 μM; read-out: ABCC6 WT EC50, Emax
T2 construct: expressed in transfected cells; host or cells: HEK-293 (transient, Lipofectamine 2000)
T2 sequence (O95255 whole entry): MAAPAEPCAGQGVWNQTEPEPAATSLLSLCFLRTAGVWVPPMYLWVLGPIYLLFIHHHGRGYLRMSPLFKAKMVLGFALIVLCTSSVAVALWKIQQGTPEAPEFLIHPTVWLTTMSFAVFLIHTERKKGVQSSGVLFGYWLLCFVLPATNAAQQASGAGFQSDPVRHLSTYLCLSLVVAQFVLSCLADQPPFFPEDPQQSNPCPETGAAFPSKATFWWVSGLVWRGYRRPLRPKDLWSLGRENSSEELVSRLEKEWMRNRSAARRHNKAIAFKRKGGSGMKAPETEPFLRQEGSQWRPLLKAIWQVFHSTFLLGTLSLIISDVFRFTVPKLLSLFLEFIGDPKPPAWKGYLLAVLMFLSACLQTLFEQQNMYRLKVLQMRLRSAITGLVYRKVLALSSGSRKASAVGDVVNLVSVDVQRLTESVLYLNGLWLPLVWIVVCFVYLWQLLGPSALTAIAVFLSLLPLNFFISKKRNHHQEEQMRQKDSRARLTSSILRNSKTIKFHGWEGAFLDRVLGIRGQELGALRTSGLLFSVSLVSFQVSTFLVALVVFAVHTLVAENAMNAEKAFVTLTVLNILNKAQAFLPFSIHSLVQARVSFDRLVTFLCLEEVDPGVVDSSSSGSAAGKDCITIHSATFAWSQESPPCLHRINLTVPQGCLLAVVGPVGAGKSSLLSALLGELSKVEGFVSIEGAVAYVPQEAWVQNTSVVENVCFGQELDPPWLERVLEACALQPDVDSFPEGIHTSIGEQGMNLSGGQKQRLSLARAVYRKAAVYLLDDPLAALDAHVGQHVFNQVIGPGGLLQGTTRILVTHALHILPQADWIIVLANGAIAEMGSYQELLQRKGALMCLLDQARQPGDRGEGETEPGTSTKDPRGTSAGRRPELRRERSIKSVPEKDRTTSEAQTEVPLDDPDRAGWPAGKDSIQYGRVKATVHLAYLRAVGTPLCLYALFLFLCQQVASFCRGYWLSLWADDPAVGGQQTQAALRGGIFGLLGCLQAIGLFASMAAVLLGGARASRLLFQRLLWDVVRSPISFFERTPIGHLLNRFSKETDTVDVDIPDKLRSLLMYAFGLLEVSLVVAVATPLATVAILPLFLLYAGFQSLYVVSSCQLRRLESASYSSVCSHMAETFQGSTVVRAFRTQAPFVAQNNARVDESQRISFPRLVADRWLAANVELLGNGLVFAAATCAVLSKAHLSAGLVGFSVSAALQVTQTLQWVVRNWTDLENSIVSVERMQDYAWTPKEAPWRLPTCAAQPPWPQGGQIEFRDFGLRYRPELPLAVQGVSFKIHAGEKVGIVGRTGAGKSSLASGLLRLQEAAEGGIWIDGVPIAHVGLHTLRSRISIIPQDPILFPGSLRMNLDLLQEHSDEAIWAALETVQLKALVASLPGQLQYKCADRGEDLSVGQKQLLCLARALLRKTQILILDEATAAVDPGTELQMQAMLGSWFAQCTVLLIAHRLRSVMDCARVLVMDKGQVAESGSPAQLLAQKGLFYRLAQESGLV
Source text: To assess activity against ABCC6, compounds were screened in an assay measuring protein expression, using cells transfected with cDNA encoding HiBit-tagged ABCC6 wild-type.
Described here is an assay for measuring the expression of the wild type of human ABCC6 (henceforth referred to as ABCC6 WT) and the use of this assay to measure the efficacy of compounds to increase the expression of ABCC6 WT. The assay was designed to characterize the efficacy and potency of compounds to increase the expression of ABCC6 WT by calculating an Emax and EC50 value. HEK-293 cells transiently expressing ABCC6 WT (HEK-293/ACC6 WT) were used for this assay and were cultured at 37° C. (5% CO2, humidified) in Dulbecco's Modified Eagle Medium (DMEM, Gibco product #11965-092) supplemented with 10% fetal bovine serum. For the assay, HEK-293 cells were transfected with […]/10 cm plate of cDNA encoding HiBit-tagged ABCC6 wild-type using Lipofectamine 2000 (Thermo Fisher, product #11668019). Twenty-four hours after transfection, the HEK-293/ACC6 WT cells were seeded in white/opaque 384-well plates (PerkinElmer, cat. No. 6007688) at 10,000 cells/well in 20 μl growth medium and allowed to settle for 4 hours at 37° C. (5% CO2, humidified). Compound serial dilutions are prepared in growth medium as ten times (10×) the final concentration and using a dilution factor of 2. After the four-hour incubation period, 2.2 μL of the 10× dilutions are transferred to the assay plate.
Dose response curves include ten doses with the top final concentration at 20 μM in 0.15% DMSO. Liquid handling is performed with an Integra mini96-tip head (INTEGRA). After addition of compound treatment, cells are incubated for 24 hours at 37° C. (5% CO2, humidified). After the 24-hour treatment, plates are allowed to equilibrate for 15 minutes at room temperature. Using Integra mini-96, 20 μl of HiBit lytic assay reagent (Promega, product #N3040), which is prepared according to manufacturer's instructions, is added to each well. The plates are rotated at room temperature for 10 minutes and luminescent signal is acquired using an EnVision Multimode Plate Reader (PerkinElmer).
Results are presented below in Table 4 for ABCC6 WT.

| Compound | EC50 (ABCD2 WT) [nM] | EC50 (ABCC6 WT) [nM] |
| --- | --- | --- |
| Cc1cc(C2CC2)nc(C)c1Oc1nc(-c2cncc(C#N)c2)ccc1NS(C)(=O)=O [Compound I-4] | < 1000 | < 1000 |
| Cc1cc(C)c(Oc2nc(-c3cncc(C#N)c3)ccc2NS(C)(=O)=O)c(C)n1 [Compound I-5] | < 1000 | < 1000 |
| Cc1cc(C)c(Oc2nc(-c3ccc(C#N)nc3C)ccc2NS(C)(=O)=O)c(C)c1 [Compound I-6] | < 1000 | < 1000 |
| Cc1cc(C)c(Oc2nc(-c3ccc(C#N)nc3)ccc2NS(C)(=O)=O)c(C)n1 [Compound I-7] | < 1000 | < 1000 |
| Cc1cc(C)c(Oc2nc(-c3cnc(C#N)c(Cl)c3)ccc2NS(C)(=O)=O)c(C)n1 [Compound I-8] | < 1000 | < 1000 |
| Cc1cc(C)c(Oc2nc(-c3cncc(Cl)c3)ncc2NS(C)(=O)=O)c(C)c1 [Compound I-9] | < 1000 | < 1000 |
| Cc1cc(C)c(Oc2nc(-c3cncc(C#N)c3)ncc2NS(C)(=O)=O)c(C)c1 [Compound I-10] | < 1000 | < 1000 |
| CNS(=O)(=O)c1ccc(-c2cncc(Cl)c2)nc1Oc1c(C)cc(C)cc1C [Compound I-95] | < 1000 | < 1000 |
| Cc1cc(C)c(Oc2nc(-c3cncc(Cl)c3)ccc2S(=O)(=O)N2CCCC2)c(C)c1 [Compound I-96] | 1000 to 10000 | 1000 to 10000 |
| Cc1cc(C)c(Oc2nc(-c3cncc(Cl)c3)ccc2S(=O)(=O)N(C)C)c(C)c1 [Compound I-97] | 1000 to 10000 | < 1000 |
| Cc1cc(C)c(Oc2nc(-c3cncc(Cl)c3)ccc2S(=O)(=O)NC2CC2)c(C)c1 [Compound I-98] | < 1000 | < 1000 |
| Cc1cc(C)c(Oc2nc(-c3cncc(Cl)c3)ccc2S(=O)(=O)NC(C)(C)C)c(C)c1 [Compound I-99] | > 25000 | 1000 to 10000 |
| Cc1cc(C)c(Oc2nc(-c3cncc(Cl)c3)ccc2S(N)(=O)=O)c(C)c1 [Compound I-100] | < 1000 | < 1000 |
| Cc1cc(C)c(Oc2nc(-c3cccc(Cl)c3)ccc2S(=O)(=O)NC2CCOC2)c(C)c1 (stereo not shown) [Compound I-101] | 1000 to 10000 | 1000 to 10000 |
| Cc1cc(C)c(Oc2nc(-c3cccc(Cl)c3)ccc2S(N)(=O)=O)c(C)c1 [Compound I-102] | > 25000 | 1000 to 10000 |
| Cc1cc(C)c(Oc2nc(-c3cncc(Cl)c3)ccc2S(C)(=N)=O)c(C)c1 (stereo not shown) [Compound I-103] | 1000 to 10000 | < 1000 |
| Cc1cc(C)c(Oc2nc(-c3cncc(Cl)c3)ccc2S(C)(=O)=O)c(C)c1 [Compound I-104] | > 25000 | 1000 to 10000 |
| Cc1cc(C(F)(F)F)nc(C2CC2)c1Oc1nc(-c2cncc(C#N)c2)ccc1S(=O)(=O)NC1CC1 [Compound I-133] | < 1000 | < 1000 |
| Cc1cc(C(F)F)nc(C2CC2)c1Oc1nc(-c2cncc(C#N)c2)ccc1N(C)S(=O)(=O)C1CC1 [Compound I-134] | 1000 to 10000 | 1000 to 10000 |
| Cc1cc(C(F)F)nc(C2CC2)c1Oc1nc(-c2cncc(C#N)c2)ccc1N(C)S(C)(=O)=O [Compound I-135] | 1000 to 10000 | 1000 to 10000 |
| Cc1cc(C)c(Oc2nc(-c3cncc(C#N)c3)ccc2N(C)S(=O)(=O)c2cccnc2)c(C2CC2)n1 [Compound I-136] | 1000 to 10000 | 1000 to 10000 |
| Cc1cc(C(F)F)nc(C2CC2)c1Oc1nc(-c2cncc(C#N)c2)ccc1NS(C)(=O)=O [Compound I-137] | < 1000 | < 1000 |
| CS(=O)(=O)Nc1ccc(-c2cncc(C#N)c2)nc1Oc1c(C2CC2)nc(C(F)(F)F)nc1C1CC1 [Compound I-138] | < 1000 | < 1000 |
| Cc1cc(C(F)(F)F)nc(C2CC2)c1Oc1nc(-c2cncc(C#N)c2)ccc1N(C)S(=O)(=O)C1CC1 [Compound I-139] | 1000 to 10000 | < 1000 |

Further lines, results first:

| EC50 (ABCD2 WT) [nM] | EC50 (ABCC6 WT) [nM] | Compound |
| --- | --- | --- |
| < 1000 | < 1000 | Cc1cc(C(F)(F)F)nc(C2CC2)c1Oc1nc(-c2cncc(C#N)c2)ccc1NS(=O)(=O)C1CC1 [Compound I-140] |
| < 1000 | < 1000 | Cc1cc(C(F)(F)F)nc(C2CC2)c1Oc1nc(-c2cncc(C#N)c2)ccc1NS(=O)(=O)C(C)C [Compound I-141] |
| 1000 to 10000 | ≥ 25000 | Cc1nc(C(F)(F)F)nc(C2CC2)c1Oc1nc(-c2cncc(C#N)c2)ccc1N(C)S(C)(=O)=O [Compound I-142] |
| < 1000 | < 1000 | Cc1nc(C2COC2)nc(C2CC2)c1Oc1nc(-c2cncc(C#N)c2)ccc1NS(C)(=O)=O [Compound I-143] |
| > 25000 | < 1000 | Cc1nc(C(F)F)nc(C2CC2)c1Oc1nc(-c2cncc(C#N)c2)ccc1NS(C)(=O)=O [Compound I-144] |
| < 1000 | < 1000 | Cc1nc(C(F)(F)F)nc(C2CC2)c1Oc1nc(-c2cncc(C#N)c2)ccc1NS(C)(=O)=O [Compound I-145] |
| 10000 to 25000 | ≥ 25000 | Cc1cc(C2CC2)nc(C2CC2)c1Oc1nc(-c2cncc(C#N)c2)ccc1N(C)S(C)(=O)=O [Compound I-146] |
| < 1000 | < 1000 | Cc1cc(C)c(Oc2nc(-c3cncc(C#N)c3)ccc2NS(=O)(=O)c2cccnc2)c(C2CC2)n1 [Compound I-147] |
| < 1000 | < 1000 | CCS(=O)(=O)N(C)c1ccc(-c2cncc(C#N)c2)nc1Oc1c(C)cc(C(F)(F)F)nc1C1CC1 [Compound I-148] |
| > 25000 | < 25000 | Cc1nc(C(F)(F)F)nc(C2CC2)c1Oc1nc(-c2cncc(Cl)c2)ccc1N(C)S(C)(=O)=O [Compound I-149] |
| < 1000 | < 1000 | Cc1nc(C2CC2)nc(C2CC2)c1Oc1nc(-c2cncc(C#N)c2)ccc1NS(C)(=O)=O [Compound I-150] |
